Data taken from PubChem BioAssay (NCI).
Several values for one entry are separate records, joined by “and”; a condition that tells them apart may be missing. Equal entries are not always repeated.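 Cultured in 96-well plates, cells were exposed to test compound for 48 hours across five concentrations. GI50 marks 50% less growth. TGI marks complete inhibition of growth.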

Columns and labels:
Assay in all cases: DTP human tumour cell line panel, 48 h
KM12 colon = tested on: KM12 colon
CAKI-1 renal = tested on: CAKI-1 renal
RXF 393 renal = tested on: RXF 393 renal
SK-MEL-28 melanoma = tested on: SK-MEL-28 melanoma
EKVX NSCLC = tested on: EKVX NSCLC
SN12C renal = tested on: SN12C renal
IGROV1 ovarian = tested on: IGROV1 ovarian
OVCAR-3 ovarian = tested on: OVCAR-3 ovarian
HOP-62 NSCLC = tested on: HOP-62 NSCLC
SK-MEL-5 melanoma = tested on: SK-MEL-5 melanoma

SMILES	TGI (KM12 colon) [µM]	TGI (CAKI-1 renal)	TGI (RXF 393 renal)	TGI (SK-MEL-28 melanoma) [µM]	TGI (EKVX NSCLC) [µM]	TGI (SN12C renal)	TGI (IGROV1 ovarian)	TGI (OVCAR-3 ovarian) [µM]	TGI (HOP-62 NSCLC)	TGI (SK-MEL-5 melanoma)	GI50 (CAKI-1 renal)	GI50 (RXF 393 renal) [µM]	GI50 (EKVX NSCLC)	GI50 (SN12C renal)	GI50 (IGROV1 ovarian)	GI50 (HOP-62 NSCLC)	GI50 (KM12 colon) [µM]	GI50 (SK-MEL-28 melanoma) [nM]	GI50 (OVCAR-3 ovarian) [µM]	GI50 (SK-MEL-5 melanoma) [nM]
CCCC[C@H]1C(=O)O[C@H](C)[C@H](NC(=O)c2cccc(NC=O)c2OC)C(=O)O[C@@H](C)[C@@H]1OC(=O)CC(C)C (tested in a mixture with another compound)	46.9	31 µM	34.6 µM	52.8	31.3	44.2 µM	15 µM	27.7	44.5 µM	27.7 µM										
O=c1c(-c2ccccc2)c(SCCN2CCOCC2)n(-c2ccccc2)c(=S)n1-c1ccccc1	> 100	> 100 µM	> 100 µM	> 100	> 100		> 100 µM	> 100	> 100 µM	> 100 µM										
Cc1ccc(C(=O)Nc2ncn(C3CC(O)C(CO)O3)c(=O)n2)cc1 (centres undefined)	> 100	> 100 µM	> 100 µM	> 100	> 100	> 100 µM	> 100 µM	> 56.5	> 100 µM	> 100 µM										
C=C1CC2C3C=C(C)C4=CC(=O)CC[C@]4(C)C3CC[C@]2(C)[C@@]1(OC(C)=O)C(C)=O (some centres undefined)		> 100 µM	> 100 µM		> 100	> 100 µM	> 100 µM		> 100 µM		2960 nM	4.31	2100 nM	1160 nM	> 100000 nM	7760 nM				
Cc1cc2c(cc1Cl)SC(c1ccccc1O)NS2(=O)=O (centres undefined)	> 100	> 100 µM	> 100 µM	> 100	> 100	> 100 µM	> 100 µM	78.4	> 100 µM	> 100 µM										
C[C@H]1CCC/C=C/[C@@H]2C[C@H](O)C[C@H]2[C@H](O)/C=C/C(=O)O1		0.0596 µM and 0.199 µM and 0.36 µM	0.0481 µM and 0.053 µM and 0.0188 µM			3.95 µM and 0.491 µM	1.12 µM and 0.973 µM and 0.645 µM		9.24 µM and 4.21 µM	< 0.01 µM and 0.0127 µM and 0.0164 µM	22.7 nM and 54.5 nM and 43.8 nM		< 16.4 nM and 54.4 nM and 44.7 nM	29.4 nM and 84.6 nM and 48.5 nM	39.5 nM and 107 nM and 72.3 nM	21.6 nM and 72.2 nM and 91.5 nM	0.0197	29.2	0.0382	< 12.2
CCCCCCCCCCCCCCCCCC(=O)OCC1OC(OC)C(NC(=O)N(CCCl)N=O)C(O)C1O (centres undefined)	67.9	> 100 µM	32.1 µM	53.1		30.3 µM	> 100 µM	65.6	> 100 µM	> 100 µM										
CCOC(=O)C12CC(C)=C(C)CC1CCCc1ccccc12 (centres undefined)	> 100	> 100 µM	43.1 µM	92.7	49.5	58.3 µM	> 100 µM	42.6	> 100 µM	37.5 µM										
COc1ccc(N=Cc2ccc(N(CCC#N)S(=O)(=O)c3ccccc3)cc2C)cc1		> 100 µM	> 100 µM	> 100	> 100	> 100 µM	> 100 µM	> 100	> 100 µM	> 100 µM										
COc1cc(/C=C2\N=C(c3ccccc3)N(c3nc4ccc(Sc5ccccc5)cc4[nH]3)C2=O)cc(OC)c1OC	58.8	> 100 µM	> 100 µM	67.4	> 100	92.4 µM	> 100 µM	> 100	> 100 µM	26.3 µM										
CCOC(=O)/C(=C\NC(C)(C)CO)c1nc2ccccc2[nH]1	> 100	> 100 µM	> 100 µM	> 100	> 100	> 100 µM	> 100 µM	> 100	> 100 µM	> 100 µM										
O=c1[nH]c2cc([N+](=O)[O-])c(N/N=C/c3ccc(Cl)cc3Cl)c([N+](=O)[O-])c2[nH]1	25.8	> 100 µM	40.9 µM	> 100	> 100	> 100 µM	78.3 µM	35.3	> 100 µM	> 100 µM										
O=C([CH-]C(=O)c1ccccc1)c1ccccc1.O=C([CH-]C(=O)c1ccccc1)c1ccccc1.O=C([CH-]C(=O)c1ccccc1)c1ccccc1.[Cl-].[Hf+4]	> 100	52.4 µM	23.2 µM	82.5	77.2	> 100 µM	> 100 µM	> 100		31.5 µM	14200 nM	7.68	24800 nM	41300 nM	33300 nM		21.1	20300	15.2	11100
CC(C)(C)c1cc(-c2nc3ccc(N4CCN(CCO)CC4)cc3[nH]2)cc(C(C)(C)C)c1O		4.45 µM		3.1		> 100 µM	> 100 µM	> 100		3.14 µM	1970 nM			3770 nM	3250 nM			1680	3.36	1740
O=C1CS(=O)(=O)C(c2cccc(Oc3ccccc3)c2)N1C1CC1 (centres undefined)	> 100		55.1 µM	> 100	> 100	> 100 µM		> 100		39.3 µM										
N#Cc1c(-c2ccc(Cl)cc2)c2c([nH]c1=O)-c1cc([N+](=O)[O-])ccc1CCC2	55.5	52.6 µM	37.6 µM	63.6	51.2	34.7 µM	60.3 µM	31.8	45.9 µM	40.7 µM										

SMILES	TGI (KM12 colon) [µM]	TGI (CAKI-1 renal)	TGI (RXF 393 renal)	TGI (SK-MEL-28 melanoma) [µM]	TGI (EKVX NSCLC) [µM]	TGI (SN12C renal)	TGI (IGROV1 ovarian)	TGI (OVCAR-3 ovarian) [µM]	TGI (HOP-62 NSCLC)	TGI (SK-MEL-5 melanoma)	GI50 (CAKI-1 renal)	GI50 (RXF 393 renal) [µM]	GI50 (EKVX NSCLC)	GI50 (SN12C renal)	GI50 (IGROV1 ovarian)	GI50 (HOP-62 NSCLC)	GI50 (KM12 colon) [µM]	GI50 (SK-MEL-28 melanoma) [nM]	GI50 (OVCAR-3 ovarian) [µM]	GI50 (SK-MEL-5 melanoma) [nM]
COc1cc(C2C(=O)C(Cl)N2Nc2nc(C)cc(=O)[nH]2)cc(OC)c1OC (centres undefined)	76.9		26.4 µM	49.6	> 100	53.1 µM	35 µM	45.1	> 100 µM	26.5 µM										
CCN(CCO)CCNc1ccc(C)c2sc3ccccc3c(=O)c12	11.2	12.6 µM	5.64 µM	3.77	26.8	23.9 µM	12.9 µM	23.3	11 µM	7.66 µM										
O=c1[nH]c(=O)n(CCOCP(=O)(O)O)nc1Br	> 100	> 100 µM	> 100 µM	> 100	> 100	> 100 µM	> 100 µM	> 100	> 100 µM	> 100 µM										
Cc1ccc2c3c1[C@@H]1O[C@@H]1c1cccc(c1-3)[C@@H]1O[C@H]21	28.8	32.9 µM		23.5	32.3	25.5 µM			32 µM	30.6 µM										
O=S(=O)(O)c1ccc2c(N=Nc3ccccc3)c(O)ccc2c1	> 100	> 100 µM	> 100 µM	> 100	> 100	> 100 µM	> 100 µM	> 100	> 100 µM	> 100 µM										
COc1ccc(N=Nc2c(N)nn(C)c2N)cc1	> 100	> 100 µM	> 100 µM	> 100	> 100	> 100 µM	> 100 µM	> 100	> 100 µM	> 100 µM										
CCCCCCCCCCCCSC(=S)c1c(C)[nH]n(CCCCCCCCCCCC)c1=O	> 100	> 100 µM		> 100	81.1	> 100 µM	> 100 µM	> 100	> 100 µM	> 100 µM										
N=C(N)c1ccc(N=Nc2c(O)ccc3cc4c(N=Nc5ccc(C(=N)N)cc5)c(O)ccc4cc23)cc1	> 100	> 100 µM	> 100 µM	> 100	> 100	> 100 µM	> 100 µM	> 100	> 100 µM	> 100 µM										
CN1NC(c2ccccc2)=C(C#N)C(=O)CC1c1ccc(F)cc1 (centres undefined)	> 100	> 100 µM	> 100 µM	> 100		> 100 µM				> 100 µM										
Cn1c(=O)ccc2c(=O)c3ccccc3oc21	> 100	> 100 µM	> 100 µM	> 100	> 100	> 100 µM	> 100 µM	> 100	> 100 µM	> 100 µM										
NC(=O)CCSC(CC(=O)c1ccc(Cl)cc1)c1ccc(Cl)cc1 (centres undefined)	19.6	42.6 µM	32.6 µM	> 100	93.7	83.2 µM	34.8 µM	40.6	93.1 µM	42.9 µM										
C/C(=C\C(=N\NC(=N)N)c1ccccc1)c1ccccc1	3.67	1.59 µM	8.42 µM	8.86		3.09 µM	2.11 µM	1.03	0.7 µM	0.76 µM										
Cc1cn(Cc2cn(CC3OC(n4cc(C)c(=O)[nH]c4=O)CC3O)nn2)c(=O)[nH]c1=O (centres undefined)	> 100	> 100 µM	> 100 µM	> 100	> 100	> 100 µM		> 100	> 100 µM	> 100 µM										
Cc1cc(=O)n2c3c(c4c(cc13)c(CN(C)C)cc(=O)n4C)OC2	67.7	97 µM	28.7 µM	> 85.8	> 58.2	> 100 µM	41.9 µM	80.1	> 100 µM	45.1 µM										
COP(=O)(OC)[C@H](O)[C@H]1C[C@@H]1c1ccccc1	> 100	> 100 µM	> 100 µM	> 100	> 100		> 100 µM	> 100	> 100 µM	> 100 µM										
